According to patent publication US20150018361A1, “ANTI-TUMOR ACTIVITY OF REDUCED FOLATES LIKE METHYLENE-TETRAHYDROFOLATE” (ISOFOL MEDICAL AB, priority 2012, published 2015):
Entries after “also recorded” stand apart in the source; their conditions may differ.

Tests used:
[1] = in the body; no species or test given; cited from earlier work
[2] = Body weight development / tolerability in the HCT116 xenograft study; format: in vivo, female NCr nu/nu mice; conditions: intraperitoneal
Experimental: (§1) Study design: A total of 30 female NCr nu/nu mice (10 per group) at the age of 8-12 weeks were injected with 5×10^6 HCT116 tumor cells in 0% Matrigel sc in flank. When the tumors reached an average size of […] they were administered with intraperitoneal injections of vehicle or [6R]-methylene-THF (Modufolin®), according to the schedule in table 1. Animals were monitored individually. The endpoint of the experiment was when a tumor weight of 1300 mm3 or 65 days was reached, whichever came first. Responders could be followed longer. When the endpoint was reached, the animals were euthanized. Body weight (bw) (g) and tumor volume (mm3) was measured on days 1, 2 (bw only), 3 (bw only), 4, 5 (bw only), 7, 11, 14, 18, 21, 25, 28, 32, 35, 39, 42, 49, 53, 56, 60 and 63.
Body weight gives an indication on how severe the side effects of the treatment are, poor development of body weight indicating more adverse side effects.

[3] = test system: HCT116 colorectal carcinoma xenograft; test: Anti-tumoral efficacy in the HCT116 colorectal carcinoma xenograft model (tumor volume); format: in vivo, female NCr nu/nu mice; conditions: intraperitoneal, 45 mg/kg or 1.7 mg/kg qd x 21, both high and low dose
Experimental: Purpose: To determine the anti-tumoral efficacy of [6R]-methylene-THF in the HCT116 colorectal carcinoma xenograft model. The HCT116 colorectal carcinoma cell line is sensitive to 5-FU and its analog capecitabine.
as §1

| SMILES | half life [1] | effect on animal weight ([2]; high-dose (45 mg/kg, qd x 21)) | body weight development compared to the vehicle group ([2]; qd x 21, both dose groups overall) | effect on animal weight ([2]; low-dose (1.7 mg/kg, qd x 21)) | anti-tumor activity (mean tumor volume over time compared to control) [3] |
| --- | --- | --- | --- | --- | --- |
| Nc1nc2c(c(=O)[nH]1)N1CN(c3ccc(C(=O)N[C@@H](CCC(=O)O)C(=O)O)cc3)CC1CN2 (stereo partly shown) [methylene-THF, 5,10-methylene-tetrahydrofolic acid] | approximately 20 min | – | – | – | – |
| Nc1nc2c(c(=O)[nH]1)NC(CNc1ccc(C(=O)N[C@@H](CCC(=O)O)C(=O)O)cc1)CN2 (stereo partly shown) [THF, tetrahydrofolic acid] | approximately 30 min | – | – | – | – |
| CN1c2c(nc(N)[nH]c2=O)NCC1CNc1ccc(C(=O)N[C@@H](CCC(=O)O)C(=O)O)cc1 (stereo partly shown) [methyl-THF, 5-methyl-tetrahydrofolic acid] | approximately 5 hours | – | – | – | – |
| Nc1nc2c(c(=O)[nH]1)N1CN(c3ccc(C(=O)N[C@@H](CCC(=O)O)C(=O)O)cc3)C[C@H]1CN2 [[6R]-methylene-THF, [6R]-5,10-methylenetetrahydrofolic acid] | – | in line with the vehicle group | slightly positive body weight development | positive effect on animal weight | marked influence on tumor volume; also recorded: intrinsic antitumor activity |
